Key:
SSCs [1] = experiment: Restoration of spermatogenesis after busulfan exposure; assay type: in vivo, mouse; settings: mice, no transplantation
GDNF = experiment: Western blot of GDNF expression in whole testis lysates; assay type: in vivo, mouse; settings: 5 weeks after busulfan vs PBS
Description: Testes harvested from vehicle or busulfan treated-wild type mice were homogenized in RIPA buffer and protein concentration quantified by the BioRad DC Protein Assay. Twenty-five ug of protein per sample were separated by SDS-PAGE, probed with anti-GDNF rabbit polyclonal antibody (1:500; Santa Cruz, Cat: 13147) or anti-cleaved Caspase 3 rabbit polyclonal antibody (1:1000; Cell Signaling, Cat: 9664) and detected by chemiluminescence (ECL, Amersham). Blots were stripped and re-probed with β-actin as a loading control. See Supplementary material for uncropped blots.
FIG. 1. a. Quantication of Gdnf mRNA in Sertoli cells and TECs, and GDNF levels by ELISA in conditioned media from Sertoli cells or TECs without or with FGF-2 (20 ngml-1) treatment for 3 days. b. Murine GFP+Thy1.2+SSCs were co-cultured with TECs or testicular cells depleted of CD31+ TECs but containing all other cell populations in the testes. After 3 weeks, SSC colonies were absent in CD31-depleted testicular cell co-cultures with Sertoli and PTM cells present, while a signicant number of GFP+ Thy1.2+ SSC colonies were present in co-cultures with TECs alone. c. Immunouorescence staining for CD31 (for ECs) on testis sections from wildtype mice 5 weeks after vehicle or busulfan treatment. […] Quantification of MVD and vessel length is shown on the right, n=3.

SSCs [2] = settings: mice, no transplantation; cited from earlier work
TECs [3] = experiment: TECs proliferation and apoptosis assays; assay type: cell-based, mouse; settings: TECs in culture, busulfan 800 μM vs DMSO
Description: TECs Proliferation and Apoptosis Assays
5×10^3 testicular ECs per well were plated on 8-chamber slide (LabteK) coated with 0.1% gelatin. Busulfan (800 μM) or DMSO were added to each well 24 hours after seeding and cultured for 72 or 96 hours. 10 μM BrdU (BD Pharmingen™) was added to media 72 hours after busulfan treatment, then incubated for 2 hours. Samples were stained with anti-BrdU (1:50; Invitrogen), anti-γ-H2AX (1:400; Millipore) and anti-cleaved caspase 3 (1:400; Cell Signaling). BrdU^+ cells in 10 random high-powered fields were counted and statistics were analyzed using Graph Pad Prism. Each condition was performed in triplicate.

TECs [4] = experiment: Microvessel density (CD31 immunostaining) in testes sections from busulfan-treated mice; assay type: in vivo, mouse; settings: wild-type mice, 5 weeks after busulfan vs vehicle
Description: Testes were dissected from male mice were cryoprotected overnight in 20% (wt vol^−1) sucrose then frozen in OCT (Tissue-Tek). Testis sections (10 or 30 m) were blocked (5% normal goat serum and 0.1% bovine serum albumin in 0.1% PBS-T) for 1 hour and washed in 0.1% PBS-T. Primary antibodies: anti-CD31 rat-pAb (1:50; BD science, Cat: 550274), anti-PLZF rabbit-polyclonal Ab (1:50; Santa Cruz, Cat: 22839), anti-DDX4 rabbit pAb (1:200; Abcam, Cat: 13840), anti-Sox9 rabbit pAb (1:200; Millipore, Cat: ABE579), anti-GDNF rabbit polyclonal Ab (1:50; Santa Cruz, Cat: SC328) were diluted in blocking buffer and incubated for 2 hours at RT, then incubated with either anti-mouse Alexa 594 (1:1000, Thermo Fischer, Cat: A110323) or anti-rabbit Alexa 488 (1:1000, Thermo Fischer, Cat: A32723) at RT for 30 minutes. Sections were stained with for 1 min to detect nuclei. […] Digital images were analyzed for the area and density of endothelial cell markers, germline stem cell markers and GDNF by counting 5 random 20× fields per testis section.
Mice were sacrificed 5-6 weeks after Busulfan treatment and tissues were fixed in paraformaldehyde overnight and then embedded in paraffin. […] After all cross sectional areas were counted, the field was randomly moved and all cross-sectional tubules counted in that field. This was continuing until the 10-20 tubules were counted per slide. […]

time required for restoration of murine spermatogenesis post-busulfan treatment (SSCs [1]): 6 months
testis GDNF expression (GDNF): global decrease
microvessel density in testes sections (TECs [4]): significant decrease
SMILES: CS(=O)(=O)OCCCCOS(C)(=O)=O [busulfan]
time to restoration of spermatogenesis following exposure to busulfan (SSCs [2]): 30-36 weeks
TEC apoptosis (cleaved caspase 3) (TECs [3]; 72 or 96 hours): increased apoptosis
TEC proliferation (BrdU) (TECs [3]; 72 hours): decreased proliferation

Reference: patent US20210386792A1, “A METHOD FOR INCREASING POPULATION OF SPERMATOGONIAL STEM CELLS” (priority 2018, published 2021)
